Assay results as given in patent publication US7528169B2, “Substance having antitumor/anti-inflammatory activity” (Riken, priority 2001, dated 2009).

Tests used:
[1] = test system: MCF-7 cells derived from human mammary cancer; experiment: Inhibitory effect on proliferation of tumor cells (MTT survival rate) under 1% or 20% oxygen; type: cell-based; conditions: 10 to 100 μg/ml, 48 hours, 1% oxygen vs 20% oxygen
Description: MCF-7 cells derived from human mammary cancer were cultured in a RPMI medium (containing 5% bovine fetal serum). The cells were added with RKB-3564S and RKB-3564SAC in a series of dilution, cultured under the condition of 1% oxygen concentration or 20% oxygen concentration for 48 hours, then added with MTT reagent [3-(4,5-dimethyl-thiazol-2-yl)-2,5-diphenyltetrazolium bromide], and further cultured for 2 to 4 hours, and then the absorption at 570 nm was measured to calculate the survival rate.

NF-κB = experiment: Inhibitory effect on NF-κB activation by TPA (luciferase reporter, pGL3-NF1, in COS-7 cells); type: cell-based; conditions: TPA 50 ng/ml, 10 to 100 μg/ml, 24 hours
Description: COS-7 cells maintained in a DMEM medium (containing 5% bovine fetal serum) were transfected with a plasmid (pGL3-NF1) containing 5xNF-κB binding sequence (5′-[…]-3′) (SEQ ID NO: 1) located upstream of the luciferase gene. The cells were added with TPA (50 ng/ml) and RKB-3564S and RKB-3564SAC in a series of dilution, and cultured for 24 hours, and then the activity of produced luciferase was measured to calculate the inhibitory effect on NF-κB activation by TPA.

[2] = Solubility (physico-chemical properties); type: physicochemical
Description: The physico-chemical properties of […] are shown below. • Appearance: colorless powdery crystals • Melting point: 71.5-72° C. (dec.) • Molecular formula: C10H12O2 • High-resolution mass spectrum (HR-RABMS): (M+H)^+Found (m/z): 165.0868 Calcd. […] Insoluble in n-hexane.

Solubility in methanol or dimethyl sulfoxide ([2]; methanol or dimethyl sulfoxide) | Solubility in n-hexane ([2]; n-hexane) | SMILES | inhibition of cell proliferation under 1% oxygen compared to 20% oxygen [1] | inhibition of transcription activation by NF-κB (NF-κB)
 |  | C/C=C/c1cccc(OC(C)=O)c1COC(C)=O [RKB-3564SAC] | significantly inhibited cell proliferation | inhibited transcription activation by NF-κB
easily soluble | Insoluble | C/C=C/c1cccc(O)c1CO [RKB-3564S] | significantly inhibited cell proliferation | inhibited transcription activation by NF-κB
